Data set [1] relates to CHO cells. Put plainly: Cellular uptake and co-localisation by confocal microscopy. The format is cell-based, Chinese Hamster. The note with it: ER Tracker 1 µM, 45 min. Here is the method:
The intracellular uptake of the BODIPY derivatives was assessed in two mammalian cell lines, CHO (non‐cancer) and MCF‐7 (cancer). […] B2P and B2PI were studied following 4 h and 17 h incubation in MCF‐7 cells with 10 μM of each BODIPY derivative. A 17 h incubation was selected to allow for adequate cell uptake of the complex, ensuring sufficient brightness for confocal imaging while minimising cell toxicity.
Across all four compounds uptake of the BODIPYs led to extremely bright and highly punctate staining from within the cells. As all of the BODIPY‐perylene probes emit minimally from aqueous media including cell culture media (Figure S20) the bright emission is attributed to localisation of the complex to non‐aqueous domains, i. e. organelle membranes or to lipid droplets (LDs). To identify which, co‐localisation studies with targeted probes were completed. CHO and MCF‐7 cells were treated with B2P, B2PI, MB2P or MB2PI and co‐stained with specific organelle markers including LD probes; PyLa−C17Cer and BODIPY 493/503, an endoplasmic reticulum stain; ER Tracker Blue‐White and a lysosomal stain; LysoTracker Deep Red. Pyla‐C17Cer was previously published and localises in both the ER and LDs.[41] Cellular uptake of B2PI was recently reported in MCF‐7 cells, though localisation was not explored.[25]
MCF‐7 and CHO cells were treated with B2P, MB2P, B2PI or MB2PI for 17 h and co‐stained with a number of dyes for co‐staining including LysoTracker Deep Red, ER Tracker Blue/White, PyLa−C17Cer, BODIPY 493/503 and H2DCFDA. Cells were imaged in phenol red free media using a Leica DMi8 confocal microscope with a 63x or 100x oil immersion lens and a heated state at 37 °C.
Uptake in Live Cell Monolayers
CHO cells were incubated in 75cm2 cell culture flasks (Corning) with DMEM/F-12 Ham medium (Sigma-Aldrich) with L-glutamine and sodium bicarbonate supplemented with 10% fetal bovine serum (FBS) (Gibco) and 1% penicillin-streptomycin (Sigma-Aldrich). MCF-7 cells were incubated in 25cm2 cell culture flasks with RPMI-1640 medium (Sigma-Aldrich) with L-glutamine and sodium bicarbonate supplemented with 10% fetal bovine serum (FBS, Gibco) and 1% penicillin-streptomycin. Cells were incubated at 37 °C with 5% CO2 and detached from the flask at 90% confluency using a 1X Trypsin-EDTA solution (Sigma-Aldrich). Cells were counted using the EVE automated cell counter (NanoEnTek) and seeded at 1 x 10^5 cells per mL in a 4 or 8 chamber µ-slide (ibidi) for cell imaging and left for 24 h at 37 °C. Cells were rinsed with 1X PBS (Gibco) and stained with B2P or B2PI at 10 µM and MB2P or MB2PI at 30 µM for 17 h. Cells were washed twice with PBS and covered with phenol red free RPMI medium (Gibco) for imaging. […]

For data set [2], the system named is MCF‐7 spheroids. Put plainly: Spheroid dark toxicity, CellTiter-Glo 3D. The class given is cell-based. Particulars: Homo sapiens, MCF7, light or radiation study; MCF‐7 3D (spheroids); without irradiation. As for the experimental part: 3D Cell Studies: Toxicity Assays
Spheroids were seeded in a clear BIOFLOAT™ round bottom 96 well plate (Sarstedt) at 2x10^4 cells per well, centrifuged using the […] for 5 minutes at 700 rpm and allowed to grow and compact for 96 hours. A 2X concentrated solution of B2P, B2PI, MB2P or MB2PI was added in a 1:1 ratio (BODIPY:media) to each well of the 96 well plate, which contained 50 µL phenol red free media, and incubated for 24 h. Prior to irradiation 90% of the media/Ru solution was removed, replaced with fresh phenol red media to dilute the remaining BODIPY (multiple dilution steps, more required for 15 µM and above), and brought to a total volume of 100 µL. Phototoxicity studies in […] spheroids were performed as per the cell monolayer protocol with an irradiation dose of 5 J/cm2 using a 470 nm LED.
Control studies with untreated spheroids confirmed 17 J/cm2 irradiation dose was toxic to spheroids, however the spheroids remained viable after 5 J/cm2 irradiation. CellTiter-Glo 3D cell viability assay (Promega) was used to assess spheroid viability and performed as per the manufacturer’s protocol, where the CellTiter-Glo 3D reagent was added to the spheroid wells

Each structure is given as a SMILES string. Where “and” joins values, the source holds several entries; their conditions need not be identical. Equal entries are not always repeated.

Consider four compounds from paper PMC11653243, “Enhancing Phototoxicity in BODIPY‐Perylene Charge Transfer Dyads by Combined Iodination and Mesylation” (Chemistry (Weinheim an Der Bergstrasse, Germany), 2024).

Regarding `CC1=C(I)C(C)=[N+]2C1=C(c1ccccc1)c1c(C)c(-c3ccc4c5cccc6cccc(c7cccc3c74)c65)c(C)n1[B-]2(F)F` [B2PI], the “Pearson Coefficient (r) with ER Tracker Blue/White” value in data set [1] is 0.46 ± 0.04 and ~0.5. This compound also showed an IC50 in data set [2] of 44 ± 3.84 µM.
On to `CC1=CC(C)=[N+]2C1=C(c1ccccc1)c1c(C)c(-c3ccc4c5cccc6cccc(c7cccc3c74)c65)c(C)n1[B-]2(F)F` [B2P], for which the “Pearson Coefficient (r) with ER Tracker Blue/White” value in data set [1] came to 0.17 ± 0.06. This compound also showed an IC50 in data set [2] of 46 ± 2.38 µM.
As to `CC1=C(c2ccc3c4cccc5cccc(c6cccc2c63)c54)C(C)=[N+]2C1=C(c1c(C)cc(C)cc1C)c1c(C)c(I)c(C)n1[B-]2(F)F` [MB2PI], in data set [1], the “Pearson Coefficient (r) with ER Tracker Blue/White” value is 0.46 ± 0.01 and ~0.5. In addition, in data set [2], the IC50 was above 50 µM.
For the compound `CC1=C(c2ccc3c4cccc5cccc(c6cccc2c63)c54)C(C)=[N+]2C1=C(c1c(C)cc(C)cc1C)c1c(C)cc(C)n1[B-]2(F)F` [MB2P], in data set [1], the “Pearson Coefficient (r) with ER Tracker Blue/White” value is 0.56 ± 0.02 and ~0.5. The compound further registered an IC50 in data set [2] above 50 µM.
